Source: publication PMC6630718, “Discovery of Novel UV-Filters with Favorable Safety Profiles in the 5-Arylideneimidazolidine-2,4-dione Derivatives Group” (Molecules, 2019)

Key:
[1] = tested on: estrogen-dependent MCF-7 breast cancer cell line; experiment: Estrogenic activity: MCF-7 proliferation, crystal violet assay; type: cell-based, human; settings: 5 μM, 120 h, estrogen- and phenol red-free medium
Procedure: To determine estrogenic activity of tested compounds their influence on estrogen-dependent MCF-7 breast cancer cell line proliferation was investigated. Cells were seeded into 24-wells plates in density of 40,000 per well. After 24 h incubation, cells were washed twice with PBS and fresh, estrogen- and phenol red-free medium (DMEM low-glucose; 2,5% Charcoal Stripped FBS; 2 mM glutamine; Sigma Aldrich, Darmstadt, Germany) was added. […] After 120 h incubations, cells proliferation was determined with crystal violet assay. Briefly, cells were washed with PBS and fixed with 3,7% formaldehyde. Then, crystal violet solution was added for 10 minutes. After incubation, solution was removed and cells were washed five times with PBS. Crystal violate was extracted from cells using destaining solution (1,33% citric acid, 1,09% sodium citrate in water/methanol (1:1) solution) and absorbance of the solution was determined at 570 nm (A570). Proliferation rate was determined by dividing the A570 of experimental wells by the A570 of control wells × 100%.

[2] = In vitro stability in mouse liver microsomes; type: in vitro ADME
How it was run: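 Compound (20 µM) with mouse liver microsomes (0.8 mg/mL), potassium phosphate pH 7.4, NADPH-regenerating system, 37 °C for 15–60 min; parent remaining by UPLC/MS, two repeats. t1/2 from ln % remaining versus time; Clint = (incubation volume/protein) × 0.693/t1/2.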

[3] = MTT cytotoxicity, skin panel model (melanocytes); type: cell-based; settings: Primary Epidermal Melanocytes (PCS-200-013, ATCC), human primary dermal melanocytes, highest tested concentration (50 µM), read-out: cell viability (% of control)
Procedure: Primary Epidermal Melanocytes were cultured in Dermal Cell Basal Medium (ATCC) supplemented with Adult Melanocyte Growth Kit Components (ATCC), HaCaT and BJ cells were cultured in Dulbecco’s modified Eagle’s medium (DMEM; New York, NY, USA) and supplemented with 10% fetal bovine serum (FBS; Gibco, New York, NY, USA). Cell maintenance was performed in a humidified incubator at 37 °C with 5% CO2. Cells were passage when the culture has reached approximately 80 to 90% confluence. Cells were seeded at density of 6 × 10^3 on 96-well plates. Following overnight culture, the cells were then treated with increasing doses of compounds and incubated for 24 h. Following cell exposure to each drug for 24 h, 10 µL MTT reagent (Sigma Aldrich, Darmstadt, Germany) was added to each well. After 4 hours incubation (37 °C, 5% CO2), the medium was aspirated and the formazan produced in the cells appeared as dark crystals in the bottom of the wells. Next, DMSO (dissolving solution) was added to each wells. Then the optical density (OD) of solution was determined at 570 nm on micro plate reader (Spectra iD3 Max, Molecular Devices; San Jose, CA, USA). Viability (% of control) was determined by dividing A570 of experimental wells by of A570 of control wells × 100%.

[4] = Photostability in methanol solutions (solar light simulator); type: physicochemical; set-up: λmax pre-irradiation: unit not given beside the values; settings: methanol solution
How it was run: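 Compounds at 25 or 50 µM in methanol, in stoppered quartz cuvettes, were irradiated 1 h at 500 W/m^2 (UV dose 218 kJ/m^2). A solar simulator filtered below 290 nm with an IR block was used. UV absorption spectra before and after irradiation were compared, with UPLC-MS/MS analysis, in duplicate.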

[5] = In vitro photoprotection study of 2% (w/w) macrogol formulations on PMMA plates
How it was run: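 Compounds at 2% in macrogol (PEG-400/PEG-1500) formulations, predissolved in triacetin:Tween 20 (1:9) or DMSO; 32.5 mg applied to 25 cm² PMMA plates (5 µm roughness), glycerin-treated plate as reference. Per EN ISO 24443:2012, modified: reflectance absorbance 290–400 nm in 1 nm steps, averaged over 12 scans.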

[6] = Ultraviolet spectroscopy in methanol solutions; type: physicochemical
How it was run: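 Spectra recorded from 290–400 nm in methanol (50 or 25 μM) in 1 cm quartz cuvettes. εmax taken as the slope of absorbance vs. concentration over 10–50 μM or 2.5–30 μM.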

[7] = Neurocytotoxicity, MTT assay; type: cell-based; settings: human, SH-SY5Y neuroblastoma cells, highest concentration (50 µM), read-out: cell viability (% of control)
Procedure: For […] assays a human neuroblastoma cell line—SH-SY5Y (CRL-2266™, ATCC) and a human hepatocellular carcinoma cell line–HepG2, respectively have been used. Cells were seeded on 96-well plates at an initial density of 10,000 cells per well. Cells were cultured in standard conditions for 24 h and then study compounds were administrated at different concentrations (10–50 μM) for another 24 h. After incubation time cells viability was measured with MTT assay. For this purpose culture medium has been replaced for the fresh one and MTT reagent (3-(4,5-dimethylthiazol-2-yl)-2,5-diphenyltetrazolium bromide) has been added at the concentration 0.5 mg/mL. Cells were incubated with MTT reagent at 37 °C for 4 h. Then formazan crystals have been dissolved in DMSO solution and the absorbance has been measured at 570 nm. Experiments were conducted in triplicates. Values represent mean percent of viability (in the percent of control).

[8] = Photostability in macrogol formulations on PMMA plates (solar light simulator); type: physicochemical; settings: after 1 h irradiation at 500 W/m^2, formulation F1
How it was run: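 Macrogol formulations (2% w/w) applied at 1.3 mg/cm² on PMMA plates were irradiated 1 h at 500 W/m² (218 kJ/m² UV) in a solar simulator with <290 nm cut-off and IR block. SPFin vitro, UVA PF and AUC were compared before and after exposure, with methanol washes analysed by UPLC-MS/MS, in duplicate.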

[9] = 2% (w/w) macrogol formulation F1 (Triacetin 4.8%)

Compound	stimulation of MCF-7 proliferation [1]	t ½ ([2]; mouse liver microsomes 0.8 mg/mL, 20 µM compound, NADPH-regenerating system, 37 °C)	Clint ([2]; mouse liver microsomes, calculated from t1/2)	viability at 24 h, 50 µM [3]	λmax pre-irradiation [4]	% of initial AUC post-irradiation ([4]; 1h irradiation at 500 W/m2)	λmax post-irradiation ([4]; 1h irradiation at 500 W/m2)	UVA PF [5, 9]	UVA/UVB Ratio [5, 9]	λc (critical wavelength) [5, 9]	SPFin vitro ([5]; 2% (w/w) macrogol formulation F1 (Tween 20, PEG-400, PEG-1500, Triacetin 4.8%))	εmax [6]	λmax [6]	Absorption Range ([6]; scan range 290–400 nm)	viability at 24 h, 50 µM [7]	% of Initial AUC [8]	% of Initial SPFin vitro [8]	% of Initial UVA PF [8]
O=C(c1ccc(O)cc1O)c1ccc(O)cc1O [BP-2, benzophenone-2, reference compound]	over 60%	1.1 h	13 µL/min/mg															
Cc1ccc(/C=C2/C(=O)C3(C)CCC2C3(C)C)cc1 (stereo not drawn) [Compound 4-MBC, 4-methylbenzylidene camphor, reference compound]				< 36%	299	87.76%	303	1.08 ± 0.1	0.00 ± 0.00	316 nm	5.59 ± 0.27	25550 M⁻¹ cm⁻¹	299 nm	290–332 nm	< 31%	90.89%	91.05%	101.39%
